Our source for the inhibition in vivo values is patent EP0903343A1, “Alpha-Substituted phenylpropionic acid derivative and medicine containing the same” (SSP Co., Ltd., priority 1997, dated 1999).

The structures appear in SMILES notation.

In this assay the test system is db/db Mice. Briefly: Antidiabetic effect on diabetic model mice (blood glucose lowering). Particulars: Mus musculus, po, blood glucose 18 to 24 hours after final administration, vs control group, read-out: Percent reduction (%) of blood glucose; for inhibition in vivo at 50 mg/kg/day: 50 mg/kg/day orally once a day for 4 days; for inhibition in vivo at 20 mg/kg/day: 20 mg/kg/day orally once a day for 4 days. The assay is classed as in vivo. On the procedure:
The α-substituted phenylpropionic acid derivatives (1) according to the present invention were used to conduct a test for evaluating their activities against model mice suffering from non-insulin dependent diabetes mellitus (NIDDM). Incidentally, pioglitazone was used as a comparative compound.
db/db Mice (Crea Co.; preliminarily rearing male mice aged 7 to 9 weeks for a week and using 4 or 5 mice having a blood glucose level of at least 300 mg/dl as a group) were used as subject animals. A predetermined amount of each of the compounds according to the present invention or the comparative compound was orally administered to the mice for 4 days once a day with the compound suspended in a 0.5% aqueous solution of sodium carboxymethyl cellulose. At 18 to 24 hours after the final administration, blood was collected from each of the subject animals to determine its blood glucose level (found value) by means of a simplified blood glucose meter, Mediace (manufactured by Terumo Corporation). On the other hand, the blood glucose level of a group of mice (control group) to which only a 0.5% aqueous solution of sodium carboxymethyl cellulose had been administered was also determined (control value).
On the basis of the thus-determined blood glucose level as to each of the compounds according to the present invention and the comparative compound, percent reduction of blood glucose was calculated out in accordance with the following equation. Percent reduction (%) = [(Control value - Found value)/(Control value)] x 100 [formula]

As to `CCOC(Cc1ccc(OCCn2ncc3ccccc3c2=O)cc1)C(N)=O` (stereo not drawn) [Compound 1A, 2-ethoxy-3-{4-[2-(1-oxo-1,2-dihydrophthalazin-2-yl)ethoxy]phenyl}propanamide], the inhibition in vivo at 50 mg/kg/day was determined as 73%.
The same measure, in the same setting: then `CCSC(Cc1ccc(OCCN2COc3ccccc3C2=O)cc1)C(=O)O` (stereo not drawn) [Compound 1O, 2-ethylthio-3-{4-[2-(4-oxo-3,4-dihydro-2H-1,3-benzoxazin-3-yl)ethoxy]phenyl}propanoic acid], with 42%.
`CCOC(Cc1ccc(OCCn2ncc3ccccc3c2=O)cc1)C(=O)NO` (stereo not drawn) [Compound 1AA, 2-ethoxy-3-{4-[2-(1-oxo-1,2-dihydrophthalazin-2-yl)ethoxy]phenyl}propanohydroxamic acid]: the inhibition in vivo at 20 mg/kg/day is 48%.
On to `CCOC(Cc1ccc(OCCn2c(=O)c3ccc(C(F)(F)F)cc3n(C)c2=O)cc1)C(=O)O` (stereo not drawn) [Compound 1AR], for which the inhibition in vivo at 20 mg/kg/day is 38%.
On to `CCOC(Cc1ccc(CCn2cnc3ccccc3c2=O)cc1)C(N)=O` (stereo not drawn) [Compound 1Q, 2-ethoxy-3-{4-[2-(4-oxo-3,4-dihydroquinazolin-3-yl)ethyl]phenyl}propanamide], for which the inhibition in vivo at 50 mg/kg/day was 49%.
In the case of `CCOC(=O)C(Cc1ccc(OCCn2nc(C)c3ccccc3c2=O)cc1)OCC` (stereo not drawn) [Compound 1BI, ethyl 2-ethoxy-3-{4-[2-(4-methyl-1-oxo-1,2-dihydrophthalazin-2-yl)ethoxy]phenyl}propanoate], the inhibition in vivo at 20 mg/kg/day stood at 52%.
`CCOC(Cc1ccc(OCCn2nc(C)c3ccccc3c2=O)cc1)C(=O)O` (stereo not drawn) [Compound 1BC]: under “10 mg/kg/day orally once a day for 4 days”, the inhibition in vivo at 10 mg/kg/day was found to be 50%.
Turning to `CC(C)OC(Cc1ccc(OCCN2COc3ccccc3C2=O)cc1)C(N)=O` (stereo not drawn) [Compound 1N], the inhibition in vivo at 50 mg/kg/day amounted to 72%.
As to `CCOC(Cc1ccc(OCCN2COc3ccccc3C2=O)cc1)C(=O)O` (stereo not drawn) [Compound 1K], the inhibition in vivo at 50 mg/kg/day worked out at 69%.
Consider `CCOC(Cc1ccc(OCCn2ncc3ccccc3c2=O)cc1)C(=O)O` (stereo not drawn) [Compound 1B, 2-ethoxy-3-{4-[2-(1-oxo-1,2-dihydrophthalazin-2-yl)ethoxy]phenyl}propanoic acid], for which the inhibition in vivo at 20 mg/kg/day is 43%.
Consider `CCc1ccc(CCOc2ccc(CC3SC(=O)NC3=O)cc2)nc1` (stereo not drawn) [Pioglitazone, pioglitazone, reference compound], for which the inhibition in vivo at 20 mg/kg/day amounted to 26% and the inhibition in vivo at 50 mg/kg/day is 44%.
As for `COC(Cc1ccc(OCCN2COc3ccccc3C2=O)cc1)C(N)=O` (stereo not drawn) [Compound 1P, 2-methoxy-3-{4-[2-(4-oxo-3,4-dihydro-2H-1,3-benzoxazin-3-yl)ethoxy]phenyl}propanamide], the inhibition in vivo at 50 mg/kg/day came out at 66%.
For `CCOC(Cc1ccc(OCCn2ccc3ccccc3c2=O)cc1)C(=O)O` (stereo not drawn) [Compound 1BS], the inhibition in vivo at 20 mg/kg/day is 60%.
As for `CCOC(Cc1ccc(OCCN2COc3ccccc3C2=O)cc1)C(N)=O` (stereo not drawn) [Compound 1J], the inhibition in vivo at 20 mg/kg/day stood at 73%.
